Assays:
[1] = Bortezomib as such; cited from earlier work
[2] = stress testing and accelerated stability studies; cited from earlier work
[3] = test system: Female New-Zealand White Rabbits; conditions: rabbit, in vivo
Description: Also Local tolerability/tissue reaction of Bortezomib 3.5 mg/0.2 mL compared with Velcade (Reference product) in Female New-Zealand White Rabbits.
The study was conducted to assess the local tolerance of Bortezomib in comparison with Velcade (Reference product) in New Zealand White Rabbits by single subcutaneous or intravenous route.

Compound | water solubility [1] | stability in aqueous solution for injection [2] | External observation of the site of injection: signs of local intolerance [3] | Microscopic signs of local intolerance ([3]; iv) | animals with signs of local intolerance observed microscopically ([3]; sc)
CC(C)C[C@H](NC(=O)[C@H](Cc1ccccc1)NC(=O)c1cnccn1)B(O)O [Bortezomib, [(1R)-3-methyl-1-[[(2s)-3-phenyl-2-(pyrazine-2-carbonylamino)propanoyl]amino]butyl]boronic acid] | poor water solubility | unstable |  |  | 
Velcade |  |  | did not reveal any signs of local intolerance | no signs of local intolerance | 50 % of animals
